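48-hour exposure; five concentrations; linearly interpolated endpoints. GI50 = concentration required for 50% inhibition of growth.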 Activity calls are given as the source filed them. No stated cut-off is given here; in the data, active = GI50 up to about 1.1 µM and inactive = higher.
Assays:
Test in all cases: inhibition of tumour cell growth, NCI panel, 48 h
[1] = system: 786-0
[2] = system: ACHN
[3] = system: CAKI-1
[4] = system: CCRF-CEM
[5] = system: HCC 2998
[6] = system: HL-60
[7] = system: HOP-92
[8] = system: HT-29
[9] = system: K562
[10] = system: KM12
[11] = system: Malme-3M
[12] = system: RPMI-8226
[13] = system: RXF 393
[14] = system: SF-295
[15] = system: SK-MEL-28
[16] = system: SK-MEL-2
[17] = system: SK-OV-3
[18] = system: SW-620
[19] = system: UACC-257
[20] = system: UACC-62

SMILES	GI50 [1]	GI50 [2]	GI50 [3]	GI50 [4]	GI50 [5]	GI50 [6]	GI50 [7]	GI50 [8]	GI50 [9]	GI50 [10]	GI50 [11]	GI50 [12]	GI50 [13]	GI50 [14]	GI50 [15]	GI50 [16]	GI50 [17]	GI50 [18]	GI50 [19]	GI50 [20]
Cc1cccc(C(C)C)c1NC(=O)C(=O)CC(=O)c1c(C)[n+]([O-])c2ccccc2[n+]1[O-]	49.1 µM (inactive)	> 100 µM (inactive)	25.6 µM (inactive)	32.2 µM (inactive)	34.3 µM (inactive)	41.2 µM (inactive)	67 µM (inactive)	34.4 µM (inactive)	> 100 µM (inactive)	38.6 µM (inactive)	18.7 µM (inactive)	22.2 µM (inactive)	44.2 µM (inactive)	49.1 µM (inactive)	36.1 µM (inactive)	29.3 µM (inactive)	> 100 µM (inactive)	33.1 µM (inactive)	23.3 µM (inactive)	21.5 µM (inactive)
COC(=O)C1=C(O)c2cc(OC)c(OC)cc2C(c2ccc(OC)c(OC)c2)C1 (stereo not given)	> 100 µM (inactive)	77.3 µM (inactive)	> 100 µM (inactive)	> 100 µM (inactive)	> 100 µM (inactive)	> 100 µM (inactive)	> 100 µM (inactive)	71.6 µM (inactive)	> 100 µM (inactive)	76.9 µM (inactive)	> 100 µM (inactive)	> 100 µM (inactive)	> 100 µM (inactive)	46.9 µM (inactive)	> 100 µM (inactive)	> 100 µM (inactive)	> 100 µM (inactive)	54.8 µM (inactive)	> 100 µM (inactive)	99.8 µM (inactive)
O=C1C(Cl)C(c2cc3cc(Br)ccc3nc2Cl)N1c1ccc(Cl)cc1 (stereo not given)	4.65 µM (inactive)	4.5 µM (inactive)	4.43 µM (inactive)	3.08 µM (inactive)	4.36 µM (inactive)	6.95 µM (inactive)	3.43 µM (inactive)	7.16 µM (inactive)	5.81 µM (inactive)	8.97 µM (inactive)	4.56 µM (inactive)	5.21 µM (inactive)	5.13 µM (inactive)	9.68 µM (inactive)	11.1 µM (inactive)	4.37 µM (inactive)	10.3 µM (inactive)	7.35 µM (inactive)	4.81 µM (inactive)	4.22 µM (inactive)
CC1(C)CC2CC(CC(C)(C)C2=O)C1=O	> 100 µM (inactive)	> 100 µM (inactive)	> 100 µM (inactive)	> 100 µM (inactive)	> 100 µM (inactive)	> 100 µM (inactive)	> 100 µM (inactive)	> 100 µM (inactive)	> 100 µM (inactive)	> 100 µM (inactive)	> 100 µM (inactive)	> 100 µM (inactive)	> 100 µM (inactive)	> 100 µM (inactive)	> 100 µM (inactive)	> 100 µM (inactive)	> 100 µM (inactive)	> 100 µM (inactive)	> 100 µM (inactive)	> 100 µM (inactive)
C=C(C(=O)OC)c1cc2ccccc2n1S(=O)(=O)c1ccccc1	6.05 µM (inactive)	1.8 µM (inactive)	0.82 µM (active)	1.24 µM (inactive)	4 µM (inactive)	1.87 µM (inactive)	0.927 µM (active)	2.91 µM (inactive)	2.34 µM (inactive)	2.04 µM (inactive)	2.11 µM (inactive)	1.28 µM (inactive)	0.792 µM (active)	7.66 µM (inactive)	2.38 µM (inactive)	2.53 µM (inactive)	11.3 µM (inactive)	2.09 µM (inactive)	4.86 µM (inactive)	4.52 µM (inactive)
CN1CCN(c2ccc3nc(-c4cc(O)c5c(nc(CO)n5C)c4O)[nH]c3n2)CC1	52.6 µM (inactive)	36.1 µM (inactive)	> 100 µM (inactive)	18.8 µM (inactive)	39.9 µM (inactive)	16.4 µM (inactive)	> 100 µM (inactive)	31.3 µM (inactive)	28.8 µM (inactive)	54.2 µM (inactive)	18.4 µM (inactive)	22.6 µM (inactive)	28.7 µM (inactive)	> 100 µM (inactive)	> 100 µM (inactive)	11 µM (inactive)	> 100 µM (inactive)	39.2 µM (inactive)	34.7 µM (inactive)	11.6 µM (inactive)
NNC(=O)C(O)C(O)C(O)CO (stereo not given)	> 100 µM (inactive)	> 100 µM (inactive)	> 100 µM (inactive)	> 100 µM (inactive)	> 100 µM (inactive)	> 100 µM (inactive)	> 100 µM (inactive)	> 100 µM (inactive)	> 100 µM (inactive)	> 100 µM (inactive)	> 100 µM (inactive)	> 100 µM (inactive)	> 100 µM (inactive)	> 100 µM (inactive)	> 100 µM (inactive)	> 100 µM (inactive)	> 100 µM (inactive)	> 100 µM (inactive)	> 100 µM (inactive)	> 100 µM (inactive)
COCN1C(N)=C(C(=O)OC(C)(C)C)C2=CC(=O)C=CC21C (stereo not given)	11.9 µM (inactive)	7.01 µM (inactive)	15.2 µM (inactive)	3.66 µM (inactive)	22.6 µM (inactive)	14.4 µM (inactive)	5.14 µM (inactive)	6.64 µM (inactive)	4.92 µM (inactive)	16.6 µM (inactive)	9.75 µM (inactive)	20.4 µM (inactive)	6.25 µM (inactive)	43.6 µM (inactive)	20.3 µM (inactive)	17.3 µM (inactive)	34.6 µM (inactive)	4.99 µM (inactive)	10.6 µM (inactive)	15.6 µM (inactive)
CC(C)N(C(C)C)S(=O)(=O)C[C@]12CC[C@H](CC13OCC(CS(=O)(=O)c1ccccc1)O3)C2(C)C (stereo not given in full)	45.9 µM (inactive)	47.8 µM (inactive)	81.3 µM (inactive)	32.1 µM (inactive)	54.5 µM (inactive)	13 µM (inactive)	> 24.3 µM (inactive)	33.4 µM (inactive)	24.5 µM (inactive)	36.4 µM (inactive)	89.1 µM (inactive)	26.5 µM (inactive)	49 µM (inactive)	28.4 µM (inactive)	> 93.5 µM (inactive)	52.5 µM (inactive)	45.5 µM (inactive)	45 µM (inactive)	28.2 µM (inactive)	49 µM (inactive)
C[n+]1c(-c2ccc(NC(=O)c3ccc(C(=O)Nc4ccc(-c5cn6ccccc6[n+]5C)cc4)cc3)cc2)cn2ccccc21	29 µM (inactive)	> 100 µM (inactive)	> 100 µM (inactive)	> 65.6 µM (inactive)	> 100 µM (inactive)	23.4 µM (inactive)	> 100 µM (inactive)	> 100 µM (inactive)	> 100 µM (inactive)	> 82.6 µM (inactive)	56.5 µM (inactive)	14.3 µM (inactive)	39.6 µM (inactive)	47.5 µM (inactive)	> 100 µM (inactive)	> 100 µM (inactive)	> 100 µM (inactive)	> 100 µM (inactive)	> 100 µM (inactive)	> 100 µM (inactive)
